Measured values taken from PubChem BioAssay (NCI).
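Values below derive from 48-hour exposures of cells grown in 96-well plates, with endpoints linearly interpolated between the two concentrations bracketing the appropriate inhibition level. TGI marks complete inhibition of growth.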

Experiments:
Assay in all cases: NCI-60 cell line screen, 48 h
[1] = test system: RXF 393 renal
[2] = test system: M14 melanoma
[3] = test system: OVCAR-8 ovarian
[4] = test system: NCI-H23 lung
[5] = test system: HOP-92 NSCLC
[6] = test system: EKVX NSCLC
[7] = test system: LOX IMVI melanoma
[8] = test system: SK-OV-3 ovarian
[9] = test system: HCT-15 colon
[10] = test system: SNB-19 CNS

Row | SMILES | TGI [1] [µM] | TGI [2] [µM] | TGI [3] [µM] | TGI [4] [µM] | TGI [5] [µM] | TGI [6] [µM] | TGI [7] [µM] | TGI [8] [µM] | TGI [9] [µM] | TGI [10] [µM]
1 | Cc1cccc(C)c1NC(=O)C(Cc1c[nH]c2ccccc12)NC(=O)OCc1ccccc1 (centres undefined) | 36.4 | 31.7 | 89.2 | 70.8 | 62.4 | 45.3 | 53.8 | 65.1 | > 100 | 51.6
2 | Cc1nn(-c2ccccc2)c2c1C(c1cc3ccccc3nc1Cl)NC(=O)N2 (centres undefined) | 55.9 | 42.4 | 47.4 | 37.6 | 32.1 | 88.8 | 44.8 | 49.1 | 48.1 | 48.1
3 | COC1=CC(=O)c2c(c(-c3nc(C)cs3)cn2C)C1=O | 77.8 | 7.39 | > 49.6 | 6.92 | 43.2 | 33.6 | 22.8 | > 100 | 14.7 | > 100
4 | Cc1ccc(S(=O)(=O)n2c3c(c4ccccc42)CCN2C[C@H]([C@H](C)Br)CC[C@@H]32)cc1 | > 100 | > 100 | > 100 | > 100 | > 100 | > 100 | > 100 | > 100 | > 100 | > 100
5 | O=S(=O)(O)C(CO)c1ccccc1 (centres undefined) (tested in a mixture with another compound) | > 100 | > 100 | > 100 | > 100 | > 100 | > 100 | > 100 | > 100 | > 100 | > 100
6 | C=CCc1cc(-c2nc(=S)[nH][nH]2)ccc1N=NNc1ccc(C(=O)O)cc1 | > 100 | > 100 | > 100 | > 100 | > 100 | > 100 | > 100 | > 100 | > 100 | > 100
7 | O=C(/C=C/c1ccccc1)Oc1ccc(C(=O)/C=C/c2ccccc2)cc1 | > 60.6 | 23.3 | 16 | 22.4 | 39 | 22 | 17.7 | > 31.6 | 17.3 | 38.5
8 | Cc1nc(C)c(N2CCN([N+](=O)[O-])CC2)c(=O)[nH]1 | > 100 | > 100 | > 100 | > 100 | > 100 | > 100 | > 100 | > 100 | > 100 | > 100
9 | O=C1C=C/C(=N\N=C(c2ccccc2)c2ccccc2)O1 | > 10 | > 10 | > 10 | > 10 | > 10 | > 10 | > 10 | > 10 | > 10 | –
10 | COc1cc2c(cc1OC)C1C3CCCCC3CCN1CC2 (centres undefined) | > 100 | – | > 100 | > 100 | > 100 | > 100 | > 100 | > 100 | > 100 | > 100
11 | CCCCCCCCCCCC[S+](C)C | 9.38 | 19.9 | 17.9 | 19.7 | 9.48 | 20.2 | 15.9 | 21.7 | 53.8 | 20.5
12 | Cc1ccc(/C=N\NC2c3cc(Cl)ccc3Nc3nc(=O)[nH]c(C)c32)cc1 (centres undefined) | > 100 | > 100 | > 100 | > 100 | > 100 | > 100 | > 100 | > 100 | – | > 100
13 | COc1ccc(-c2nc(SCC(=O)NNC(=S)Nc3ccccc3)[nH]c2-c2ccc(OC)cc2)cc1 | 43.9 | 34.6 | > 100 | 39.3 | 44.9 | 75.9 | 37.9 | > 100 | 52 | 43.2
14 | CCOc1cc(/C=C2/C(C)=NN(c3cccc(Cl)c3)/C2=N/c2nc3ccccc3s2)ccc1O | > 100 | 75.5 | > 100 | 50.7 | 67.8 | > 100 | > 100 | 70.5 | 69.8 | –
15 | CCOS(C)(=O)=O | > 100 | > 100 | > 100 | > 100 | 30.7 | > 100 | > 100 | > 100 | > 100 | > 100
16 | CC(C)SC(=S)Sc1c(Cl)c(Cl)nc(Cl)c1Cl | 9.17 | 26.7 | 10.5 | 29 | 21.4 | 22.8 | 6.68 | 32.7 | > 34.1 | 21.1
17 | COC(=O)/C=C\C(C#N)(C#N)N=Cc1ccc(C)cc1 | 3.9 | 4.42 | 6.12 | 15.1 | 3.6 | 28.7 | 5.8 | 31.6 | 6.87 | 43.1
18 | N#CC(C#N)=C1SC(=Nc2ccccc2)C(=Nc2ccccc2)N1c1ccccc1 | 45.5 | 54.7 | 65.9 | 97.7 | 15.6 | > 100 | 24.4 | > 100 | 6.3 | > 100
19 | COc1cc(OC)c2c(=O)cc(-c3ccc(OC)c(OC)c3OC)oc2c1 | > 100 | > 100 | – | > 100 | > 100 | > 100 | > 100 | > 100 | > 100 | > 100
20 | Cc1cc(/N=C/c2ccc(N(C)C)cc2)n(-c2ccccc2)n1 | > 100 | > 100 | > 100 | > 100 | > 100 | > 100 | > 100 | > 100 | > 100 | > 100
21 | NS(=O)(=O)c1ccc(NC(=S)/N=C/C2=C(O)c3ccccc3C2=O)cc1 | > 100 | > 100 | – | > 100 | > 100 | > 100 | > 100 | > 100 | > 100 | > 100
22 | Cn1c(SCc2ccc(F)cc2)nnc1C12CC3CC(CC(C3)C1)C2 | > 100 | 71.8 | > 100 | > 100 | 77.1 | > 100 | 45.6 | > 100 | > 100 | > 100
